These results are taken from patent publication US8026365B2, “4,4-disubstituted piperidine derivatives” (Hoffman-La Roche Inc., priority 2007, dated 2011).

In general, Ki refers to a dissociation constant, usually derived from enzyme kinetics or from competition with a known ligand.

T1 sequence (P35346 whole entry): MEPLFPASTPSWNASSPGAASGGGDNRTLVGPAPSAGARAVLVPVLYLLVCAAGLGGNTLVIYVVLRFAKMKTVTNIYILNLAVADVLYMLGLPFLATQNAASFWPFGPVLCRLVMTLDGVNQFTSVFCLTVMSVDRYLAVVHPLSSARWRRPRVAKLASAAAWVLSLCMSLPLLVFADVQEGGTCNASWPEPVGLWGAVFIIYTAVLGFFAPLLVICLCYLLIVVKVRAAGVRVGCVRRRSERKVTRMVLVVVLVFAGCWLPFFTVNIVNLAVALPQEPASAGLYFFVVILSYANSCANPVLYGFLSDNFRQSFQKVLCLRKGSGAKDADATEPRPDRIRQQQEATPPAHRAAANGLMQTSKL

This assay has as its target T1, human subtype 5 somatostatin receptor (SSTR5) (Homo sapiens, UniProt P35346).
T1 construct: host or cells: CHO cell line, stably transfected; membranes prepared by sonication and centrifugation
Kind of assay: radioligand replacement (binding) assay, 125I-labeled 11-Tyr somatostatin-14, membranes of CHO cells expressing SSTR5. The conditions noted are these: membranes of CHO cells stably transfected with human SSTR5; 0.05 nM 125I tracer; Ki calculated from IC50 by Cheng-Prussoff equation. The protocol: A CHO cell line stably transfected with a plasmid encoding the human subtype 5 somatostatin receptor (GenBank accession number D16827) was obtained from Euroscreen. Cells were cultured and used for binding and functional assays.
Membranes of these cells were prepared by sonication in the presence of protease inhibitors and subsequent fractionating centrifugation. The protein concentration in the membrane preparation was determined using a commercial kit (BCA kit, Pierce, USA). Membranes were stored at −80° C. until use. After thawing membranes were diluted in assay buffer (50 mM Tris-HCl at pH 7.4, 5 mM MgCl2 and 0.20% BSA) and subjected to dounce homogenization.
For binding studies, 0.1 mL membrane suspension, corresponding to approximately 6×10^−15 mol receptor, was incubated for 1 h at room temperature with 0.05 nM ^125I-labeled tracer (11-Tyr somatostatin-14, Perkin-Elmer) and either test compounds in varying concentrations or, for the determination of non-specific binding, 0.001 mM non-labeled somatostatin-14. The incubation was stopped by filtration through GF/B glassfiber filters and washing with ice-cold wash buffer (50 mM Tris-HCl at pH 7.4). The bound radioactivity was measured after application of a scintillation cocktail (Microscint 40) and expressed as disintegrations per minute (dpm).
The receptor concentration was determined in a prior saturation experiment where a fixed, arbitrary amount of membranes was incubated with a concentration range of radio-labeled tracer. This allows estimating the total number of specific binding sites per amount of protein (i.e., Bmax), typically between 1 and 5 pmol/mg.
The concentration of the test compound required to result in half maximal inhibition of binding of the radio-labeled tracer (IC50) was estimated from a concentration-versus-dpm graph. The binding affinity (Ki) was calculated from the IC50 by applying the Cheng-Prussoff equation for single binding sites.
Turning to `CCOc1cc(CN2CCC3(CC2)NC(=O)NC3=O)ccc1Cl` [Example 2, 8-(4-chloro-3-ethoxy-benzyl)-1,3,8-triaza-spiro[4.5]decane-2,4-dione], the Ki was 0.051 µM.
Turning to `CCOc1cc(CN2CCC3(CC2)NC(=O)NC3=O)cc(OCC)c1Cl` [Example 5, 8-(4-chloro-3,5-diethoxy-benzyl)-1,3,8-triaza-spiro[4.5]decane-2,4-dione], the inhibition constant (Ki) is 0.042 µM.
To `CCOc1cc(CN2CCC3(CC2)NC(=O)NC3=O)cc(OCC)c1-n1cccc1` [Example 7, 8-(3,5-diethoxy-4-pyrrol-1-yl-benzyl)-1,3,8-triaza-spiro[4.5]decane-2,4-dione] belongs 0.015 µM; to `CCOc1cc(CN2CCC3(CC2)CCN(c2ccccc2)C3=O)cc(OCC)c1Cl` [Example 11, 8-(4-chloro-3,5-diethoxy-benzyl)-2-phenyl-2,8-diaza-spiro[4.5]decan-1-one], 0.228 µM; to `CCOc1cc(CN2CCC3(CC2)N=C(c2ccccc2)NC3=O)ccc1C` [Example 15, 8-(3-ethoxy-4-methyl-benzyl)-2-phenyl-1,3,8-triaza-spiro[4.5]dec-1-en-4-one], 0.037 µM.
In the case of `CCOc1cc(CN2CCC3(CC2)N=C(c2ccccc2)NC3=O)ccc1Cl` [Example 17, 8-(4-chloro-3-ethoxy-benzyl)-2-phenyl-1,3,8-triaza-spiro[4.5]dec-1-en-4-one], the Ki is 0.05 µM.
As for `CCOc1cc(CN2CCC3(CC2)N=C(c2ccccc2)NC3=O)ccc1OC(F)F` [Example 26, 8-(4-difluoromethoxy-3-ethoxy-benzyl)-2-phenyl-1,3,8-triaza-spiro[4.5]dec-1-en-4-one], the figure is 0.226 µM; as for `COc1ccc(CN2CCC3(CC2)N=C(c2ccccc2)NC3=O)cc1OCCF` [Example 29, 8-[3-(2-fluoro-ethoxy)-4-methoxy-benzyl]-2-phenyl-1,3,8-triaza-spiro[4.5]dec-1-en-4-one], 0.717 µM; as for `COc1ccc(CN2CCC3(CC2)N=C(c2ccccc2)NC3=O)cc1OC1CCCC1` [Example 33, 8-(3-cyclopentyloxy-4-methoxy-benzyl)-2-phenyl-1,3,8-triaza-spiro[4.5]dec-1-en-4-one], 0.273 µM.
As for `CCOc1cc(CN2CCC3(CC2)N=C(c2ccccc2)NC3=O)cc(OCC)c1Br` [Example 38, 8-(4-bromo-3,5-diethoxy-benzyl)-2-phenyl-1,3,8-triaza-spiro[4.5]dec-1-en-4-one], the figure is 0.018 µM.
To `CCOc1cc(CN2CCC(NC(=O)c3ccc(Cl)cc3)(C(N)=O)CC2)cc(OCC)c1Cl` [Example 42, 4-(4-chloro-benzoylamino)-1-(4-chloro-3,5-diethoxy-benzyl)-piperidine-4-carboxylic acid amide] belongs 0.096 µM; to `CCOc1cc(CN2CCC(C#N)(NC(=O)c3cncc(C)c3)CC2)cc(OCC)c1F` [Example 44, N-[4-cyano-1-(3,5-diethoxy-4-fluoro-benzyl)-piperidin-4-yl]-5-methyl-nicotinamide], 0.342 µM.
For the compound `CCOc1cc(CN2CCC(C#N)(NC(=O)c3ccc(Cl)nc3)CC2)cc(OCC)c1-c1ccc(F)cc1` [Example 46, 6-chloro-N-[4-cyano-1-(2,6-diethoxy-4′-fluoro-biphenyl-4-ylmethyl)-piperidin-4-yl]-nicotinamide], the inhibitory constant (Ki) is 0.066 µM.
